# Laboratory results reported in paper PMC8772930, “Experimental and Molecular Docking Studies of Cyclic Diphenyl Phosphonates as DNA Gyrase Inhibitors for Fluoroquinolone-Resistant Pathogens” (Antibiotics, 2022).
# Biological target: T1, DNA gyrase (Escherichia coli, UniProt P0AES6)
# T1 construct: gene gyrB; with DNA gyrase subunit A (GyrA)
# Test: DNA supercoiling inhibition assay (Inspiralis E. coli gyrase microplate kit, agarose gel)
# Assay type: biochemical
smiles,measurement,value
"NN1C=CCCC1P(=O)(Oc1ccccc1)Oc1ccccc1 (stereo not shown) [2a, cyclic diphenylphosphonate 2a]",IC50,12 µM
